Laboratory results: patent US8084471B2, “Proteomimetic compounds as inhibitors of the interaction of nuclear receptor with coactivator peptides” (Yale University, priority 2006, dated 2011)
Ends that are not written are not given here.

Experiments:
[1] = molecular target: T1, ERα (Homo sapiens, UniProt P03372); experiment: Fluorescence polarization assay: displacement of rhodamine-labeled peptide D22 from estradiol-activated ER; format: binding; parameters: purchased Invitrogen; settings: for fluorescence polarization titration curve: FIG. 2; for Ki: ERα 75 nM, 17β-estradiol 2 μM, D22 1 nM; for affinity (in words): FP assay
T1 sequence (P03372 1-595): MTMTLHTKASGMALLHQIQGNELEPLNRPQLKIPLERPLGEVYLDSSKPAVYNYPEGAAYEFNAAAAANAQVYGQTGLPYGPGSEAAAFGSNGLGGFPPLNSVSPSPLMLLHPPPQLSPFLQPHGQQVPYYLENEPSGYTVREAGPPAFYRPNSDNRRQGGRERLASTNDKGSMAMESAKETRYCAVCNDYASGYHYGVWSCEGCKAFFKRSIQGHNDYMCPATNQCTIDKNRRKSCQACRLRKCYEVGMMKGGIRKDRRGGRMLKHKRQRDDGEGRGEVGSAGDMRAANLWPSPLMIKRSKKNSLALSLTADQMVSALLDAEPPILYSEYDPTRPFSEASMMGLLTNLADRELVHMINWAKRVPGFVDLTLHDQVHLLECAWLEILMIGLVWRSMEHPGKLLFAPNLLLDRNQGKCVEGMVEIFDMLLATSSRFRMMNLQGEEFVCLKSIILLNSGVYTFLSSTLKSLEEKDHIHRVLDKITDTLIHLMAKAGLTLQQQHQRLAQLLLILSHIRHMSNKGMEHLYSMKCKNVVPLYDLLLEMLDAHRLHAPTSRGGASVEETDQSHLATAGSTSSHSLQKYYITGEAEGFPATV

[2] = molecular target: T1, ERα; experiment: Competitive radioligand assay with [3H]estradiol for the estradiol binding site; parameters: purchased MDS Pharma Services (contract assay); host or cells: Sf9 insect cells; settings: ERα from human recombinant insect Sf9 cells
Experimental: Inhibition of coactivator binding by a small molecule involves either direct competition with the helical peptide for the ER surface or binding of the small molecule to the ligand binding site as an antagonist, deactivating the ER and preventing coactivator recruitment. To rule out the latter mechanism, a competitive radioligand assay with [^3H]estradiol was carried out to specifically measure the affinity of 3 for the estradiol binding site. According to the radioligand assay, 3 binds to this site with an affinity <0.001% the affinity of 17β-estradiol. […] From this it was concluded that the helix mimetics prevent the coactivator association through direct competition for its binding site on the ER surface. […]
Procedure: Ammonium sulfate precipitates of the hER were dissolved in TDEE buffer containing 100 mM KCl, 0.5 mM leupeptin, and 10% glycerol. […] The hER was incubated with a varied concentration of [^3H]estradiol, and the nonspecific binding was measured by a parallel incubation with [^3H]estradiol plus a 300-fold excess of estradiol for 15 h at 4° C. At the completion of the incubation, 50 μL of each mixture was removed and the total [^3H]estradiol concentration determined. […] The hydroxylapatite pellets were suspended in 1 mL of ethanol and counted in 5 mL of scintillation fluid, and the receptor-bound [^3H]estradiol was measured. […]

[3] = molecular target: T1, ERα; parameters: purchased Invitrogen; settings: used to obtain Ki from IC50; D22 at 1 nM; read-out: Kd of the fluorescent peptide; cited from earlier work

## CC(C)Cc1cc(-c2c(CC(C)C)cc(O)c(=O)n2CC(C)C)ccn1 [Compound 1, 3-Hydroxy-1,5-diisobutyl-6-(2-isobutyl-4-pyridyl)-1H-pyridin-2-one]
[1]
  fluorescence polarization titration curve: slopes rapidly downward
[1]; Table 1 left column
  Ki: 34 µM
[1]; relative to compound 2
  decrease in affinity: 2 fold

## CC(C)CCn1c(-c2ccnc(CC(C)C)c2)c(CC(C)C)cc(O)c1=O [Compound 2, 3-Hydroxy-5-isobutyl-6-(2-isobutyl-4-pyridyl)-1-(3-methylbutyl)-1H-pyridin-2-one]
[1]; standard deviation in brackets
  Ki: 16 µM

## CC(C)Cc1cc(-c2c(CC(C)C)cc(O)c(=O)n2CCc2ccccc2)ccn1 [Compound 3, 3-Hydroxy-5-isobutyl-6-(2-isobutyl-4-pyridyl)-1-(2-phenylethyl)-1H-pyridin-2-one]
[1]; standard deviation in brackets
  Ki: 9.4 µM
[2]
  affinity for the estradiol binding site relative to 17β-estradiol: < 0.001%

## CC(C)Cc1cc(-c2c(CC(C)C)cc(O)c(=O)n2CCC(C)(C)C)ccn1 [Compound 4, 3-hydroxy-5-isobutyl-6-(2-isobutyl-4-pyridyl)-1-(3,3-dimethylbutyl)1H-pyridin-2-one]
[1]; standard deviation in brackets
  Ki: > 50 µM
[1]
  affinity (in words): weak affinity

## CC(C)Cc1cc(O)c(=O)n(CCC(C)(C)C)c1-c1ccnc(C(C)(C)C)c1 [Compound 5, 6-(2-tert-Butyl-4-pyridyl)-3-hydroxy-5-isobutyl-1-(3,3-dimethylbutyl)1H-pyridin-2-one]
[1]; standard deviation in brackets
  Ki: > 50 µM
[1]
  fluorescence polarization titration curve: about 0.95
  affinity (in words): weak affinity

## CC(C)Cc1cc(O)c(=O)n(CCc2ccccc2)c1-c1ccnc(Cc2ccccc2)c1 [Compound 6, 6-(2-Benzyl-4-pyridyl)-3-hydroxy-5-isobutyl-1-(2-phenylethyl)-1H-pyridin-2-one]
[1]; standard deviation in brackets
  Ki: 6.5 µM

## CC(C)Cc1cc(O)c(=O)n(CCc2ccc3ccccc3c2)c1-c1ccnc(Cc2ccccc2)c1 [Compound 7, 6-(2-Benzyl-4-pyridyl)-3-hydroxy-5-isobutyl-1-(2-(2-naphthyl)ethyl)-1H-pyridin-2-one]
[1]; standard deviation in brackets
  Ki: 4.2 µM

## CLTERHKILHRLLQE [SRC-1 NR II, CLTERHKILHRLLQE, reference compound]
[1]; standard deviation in brackets
  Ki: 0.95 µM
[1]; Table 1 left column
  Ki: 1 µM

## Rho-LPYEGSLLLKLLRAPVEEV-COOH [Compound D22, rhodamine-labeled peptide which contains a single LXXLL motif, FP probe]
[3]
  Kd: 0.031 µM
